Laboratory results taken from ChEMBL document CHEMBL1201862, “PubChem BioAssay data set” (2004).
Calls of active or inactive are those of the source. Rule as the data show it, for most assays here: actives have a measured EC50 and inactives only a lower limit.

What was measured:
[1] = target: T1, Corticotropin-releasing factor receptor 2/Corticotropin-releasing factor-binding protein (Homo sapiens, UniProt P24387+Q13324); experiment: Dose Response confirmation of uHTS hits for small molecule antagonists of the CRF-binding protein and CRF-R2 receptor complex.; assay type: functional; settings: read-out: IC50_Mean
T1 sequence (Q13324 whole entry): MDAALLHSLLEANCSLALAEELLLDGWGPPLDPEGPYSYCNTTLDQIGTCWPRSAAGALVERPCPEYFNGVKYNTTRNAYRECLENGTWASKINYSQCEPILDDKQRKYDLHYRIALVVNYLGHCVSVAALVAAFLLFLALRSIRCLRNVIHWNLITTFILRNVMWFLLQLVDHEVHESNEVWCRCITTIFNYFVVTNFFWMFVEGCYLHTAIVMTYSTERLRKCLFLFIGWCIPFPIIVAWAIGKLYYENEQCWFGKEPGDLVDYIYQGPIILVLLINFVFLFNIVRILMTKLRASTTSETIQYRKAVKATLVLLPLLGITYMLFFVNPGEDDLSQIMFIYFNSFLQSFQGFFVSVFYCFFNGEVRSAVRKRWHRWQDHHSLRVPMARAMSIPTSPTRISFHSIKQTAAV
T1 sequence (P24387 whole entry): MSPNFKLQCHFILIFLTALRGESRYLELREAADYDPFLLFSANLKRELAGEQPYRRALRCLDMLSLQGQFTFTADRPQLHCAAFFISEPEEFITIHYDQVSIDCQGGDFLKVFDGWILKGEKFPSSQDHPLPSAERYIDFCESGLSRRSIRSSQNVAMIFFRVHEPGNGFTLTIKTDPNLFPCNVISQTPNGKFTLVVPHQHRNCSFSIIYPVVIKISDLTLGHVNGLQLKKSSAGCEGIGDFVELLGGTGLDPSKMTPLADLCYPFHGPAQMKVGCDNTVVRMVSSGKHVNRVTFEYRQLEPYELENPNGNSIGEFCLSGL

[2] = target: T1, Corticotropin-releasing factor receptor 2/Corticotropin-releasing factor-binding protein; experiment: activators of CRF receptor 2 with binding protein – uHTS hits, confirmation (AID 602473); assay type: functional; settings: read-out: EC50_Mean
[3] = inhibitors of intracellular T. cruzi replication, confirmation, NIH3T3 host cells, beta-gal luminescence (AID 2044); assay type: functional, cell-based;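 also: intracellular parasites grown in NIH/3T3 mouse fibroblasts as host cells; luminescent beta-galactosidase reporter signal from transgenic T. cruzi replicating inside host cells; inhibitors lower the luminescence signal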
[4] = cytotoxicity toward NIH3T3 fibroblasts, dose response, counter-screen, cell-based, ATP luminescence, mouse fibroblasts (AID 2010); assay type: functional;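 also: cells exposed to compound for about 90 hours before reading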
[5] = test system: INS1; experiment: beta cell apoptosis inhibitors, cytokine rescue, dose response, luminescence, retest (AID 449756); assay type: functional, cell-based; settings: Rattus norvegicus;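 also: cell death triggered by IL-1 beta plus TNF-alpha plus IFN-gamma mixture; protective hits raise ATP signal compared with cytokine alone wells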
[6] = target: Cytochrome P450 2D6 (Homo sapiens, UniProt P10635);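 also: CYP2D6 member of a cytochrome P450 panel assay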
[7] = inhibitors of firefly luciferase expression or activity, dose response, H4 neuroglioma cells, luminescence (AID 1990); assay type: functional, cell-based
[8] = test system: Streptococcus sp. 'group A'; experiment: growth inhibition of control SK(-) GAS strain, dose response, counter-screen for streptokinase expression inhibitor project, luminescence, kanamycin, BacTiterGlo, confirmation (AID 1900); assay type: functional, organism-based
[9] = Luminescence Cell-Based Dose Response HTS to Identify Inhibitors of 5'UTR Stem-Loop Driven Prion Protein mRNA Translation in H4 Neuroglioblastoma Cells. [Related pubchem assays: 1827 (Project Summary), 1813 (Primary HTS)]; assay type: functional
[10] = inhibitors of SNCA 5'UTR-driven reporter translation, confirmation, H4 neuroglioma cells, luminescence (AID 1988); assay type: functional, cell-based
[11] = target: T2, Streptokinase A (Streptococcus pyogenes serotype M1, UniProt P10520); experiment: S. pyogenes streptokinase expression inhibitors, potency, dose response, plasminogen activation absorbance, OD405 (AID 1914); assay type: functional, Streptococcus pyogenes M1 GAS;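 also: secreted streptokinase activity via plasminogen activation per viability signal from cell pellet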
T2 sequence (P10520 whole entry): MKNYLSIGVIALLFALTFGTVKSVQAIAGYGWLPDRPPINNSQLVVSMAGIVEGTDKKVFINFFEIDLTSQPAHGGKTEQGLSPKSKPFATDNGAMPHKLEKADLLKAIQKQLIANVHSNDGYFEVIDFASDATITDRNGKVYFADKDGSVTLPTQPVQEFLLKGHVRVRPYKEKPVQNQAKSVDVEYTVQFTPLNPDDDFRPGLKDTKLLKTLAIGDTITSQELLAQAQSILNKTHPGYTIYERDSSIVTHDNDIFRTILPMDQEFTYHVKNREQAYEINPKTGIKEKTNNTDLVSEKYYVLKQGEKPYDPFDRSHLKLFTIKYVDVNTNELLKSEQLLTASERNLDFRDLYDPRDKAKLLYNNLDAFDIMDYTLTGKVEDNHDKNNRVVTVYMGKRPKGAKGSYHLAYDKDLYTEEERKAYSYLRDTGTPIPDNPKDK

[12] = test system: Streptococcus; experiment: Group A Streptococcus viability loss, dose response, counter-screen for streptokinase expression inhibitor project, luminescence, BacTiterGlo (AID 1915); assay type: functional, organism-based;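 also: potency for reduction of bacterial viability or growth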

Sequence of Cytochrome P450 2D6 (P10635 whole entry): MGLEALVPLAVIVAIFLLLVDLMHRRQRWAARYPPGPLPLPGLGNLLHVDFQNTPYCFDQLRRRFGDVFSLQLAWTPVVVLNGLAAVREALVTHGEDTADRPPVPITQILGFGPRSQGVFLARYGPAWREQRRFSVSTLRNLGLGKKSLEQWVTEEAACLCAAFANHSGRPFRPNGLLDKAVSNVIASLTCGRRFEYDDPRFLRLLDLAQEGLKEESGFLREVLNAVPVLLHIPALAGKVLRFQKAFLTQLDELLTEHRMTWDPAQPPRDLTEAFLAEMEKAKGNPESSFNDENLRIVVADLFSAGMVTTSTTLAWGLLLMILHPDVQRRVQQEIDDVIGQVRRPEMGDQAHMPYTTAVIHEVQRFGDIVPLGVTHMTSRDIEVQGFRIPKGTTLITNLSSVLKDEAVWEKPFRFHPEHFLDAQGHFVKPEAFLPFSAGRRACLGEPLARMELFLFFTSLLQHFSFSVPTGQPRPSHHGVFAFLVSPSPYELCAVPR

Compound	IC50 [1]	EC50 [2]	also measured
CCOC(=O)C(Cc1ccccc1)NC(=O)CCc1nnc2ccc(N3CCCC3)nn12 (centres undefined)	> 47.1 µM (inactive)	> 53 µM (inactive)	–
Cc1ccc(CN2CC(C(=O)NCCCSc3ccccc3)CC2=O)cc1 (centres undefined)	> 47.1 µM (inactive)	> 53 µM (inactive)	–
Cc1ccc(NC(=O)c2c(C(F)(F)F)nn(C)c2SCc2cccc(C(F)(F)F)c2)cc1C	–	–	EC50 [3]: 2.52 µM (active); EC50 [4]: > 60 µM (inconclusive); AC50 [5]: 5.94 µM (active); AC50 [6]: 14.1 µM (inconclusive)
CCN(CC)C(=O)CSc1ncnc2c1cnn2-c1ccccc1	> 47.1 µM (inactive)	> 53 µM (inactive)	–
CCN=C(S)Nc1cc(OC)c(NC(=O)c2ccco2)cc1OC	> 47.1 µM (inactive)	> 53 µM (inactive)	–
O=C(Nc1cccn(Cc2c(Cl)cccc2Cl)c1=O)c1c(Cl)cccc1Cl	9.97 µM (active)	> 53 µM (inactive)	–
Cn1c(=O)n(C)c2cc(S(=O)(=O)Nc3cc(Cl)ccc3O)ccc21	> 47.1 µM (inactive)	> 53 µM (inactive)	–
COC(=O)c1ccc(CNC(=O)COC(=O)CC23CC4CC(CC(Br)(C4)C2)C3)cc1	> 47.1 µM (inactive)	> 53 µM (inactive)	–
Cc1ccc(N2C(=O)CC(=O)NC2=O)c(C)c1	> 47.1 µM (inactive)	> 53 µM (inactive)	–
CN(Cc1ccccn1)C(=O)C1CCC(=O)N(Cc2cccc(C(F)(F)F)c2)C1 (centres undefined)	> 47.1 µM (inactive)	> 53 µM (inactive)	–
O=C(CCC(=O)Nc1ccc(Br)cc1)N/N=C/c1ccccc1O	–	–	EC50 [7]: 12.6 µM (active); EC50 [8]: 5.1 µM (active); EC50 [9]: 33.8 µM (active); EC50 [10]: 8.55 µM (active); EC50 [11]: > 150 µM (not active); EC50 [12]: 14.3 µM (active); AC50 [5]: 3.65 µM (active)
